In PMC5577615, “Myticalins: A Novel Multigenic Family of Linear, Cationic Antimicrobial Peptides from Marine Mussels (Mytilus spp.)” (Marine Drugs, 2017):
Where no end group is shown, it is not given here.

Key:
Format in all cases: cell-based
[1] = system: Bacillus subtilis ATCC 6051; assay: MIC, broth microdilution
Description: (§1) The following strains have been used in this study: Escherichia coli ATCC 25922, Staphylococcus aureus ATCC […], Vibrio anguillarum ATCC 43305, Pseudomonas aeruginosa ATCC 27853, Acinetobacter baumannii ATCC 19606, Bacillus subtilis ATCC 6051. Vibrio anguillarum ATCC 43305 was cultivated in tryptic soy broth (TSB, Becton Dickinson, Milan, Italy) implemented with 2% NaCl, all the other strains were grown in Müller-Hinton broth (MH, Becton Dickinson, Milan, Italy).
(§2) The minimum inhibiting concentration (MIC) of each myticalin synthetic peptide was calculated using the broth microdilution method. Briefly, twofold serial dilutions of each peptide were prepared in appropriate growth medium and aliquoted in the wells of a round-bottom microtiter plates (Sarstedt, Nümbrecht, Germany). An overnight culture of each bacterial strain was diluted 1:50 in fresh growth medium and grown to an OD600nm ≈ 0.3. Each well was then inoculated with a standardized inoculum in order to achieve, in a final total volume of 100 μL, a final test concentration of about 5 × 10^5 CFU/mL. The plate was then sealed to minimize evaporation and incubated at 37 °C for 24 h. The day after, the MIC was identified as the lowest concentration of the peptide that impaired any visible bacterial growth.

[2] = system: Staphylococcus aureus ATCC 25923; assay: MIC, broth microdilution
Description: as §1, §2

[3] = system: Pseudomonas aeruginosa ATCC 27853; assay: MIC, broth microdilution
Description: as §1, §2

[4] = system: Escherichia coli ATCC 25922; assay: MIC, broth microdilution
Description: as §1, §2

[5] = system: Vibrio anguillarum ATCC 43305; assay: MIC, broth microdilution
Description: as §1, §2

[6] = system: Acinetobacter baumannii ATCC 19606; assay: MIC, broth microdilution
Description: as §1, §2

[7] = system: tested bacterial strains (Gram-positive and Gram-negative); details: for antimicrobial activity / spectrum in words: tested Gram-positive and Gram-negative strains
Description: as §1, §2

[8] = Bacillus subtilis ATCC 6051, Müller-Hinton broth, about 5 × 10^5 CFU/mL, 37 °C, 24 h, mode of four independent experiments
[9] = Staphylococcus aureus ATCC 25923, Müller-Hinton broth, about 5 × 10^5 CFU/mL, 37 °C, 24 h, mode of four independent experiments
[10] = Pseudomonas aeruginosa ATCC 27853, Müller-Hinton broth, about 5 × 10^5 CFU/mL, 37 °C, 24 h, mode of four independent experiments
[11] = Escherichia coli ATCC 25922, Müller-Hinton broth, about 5 × 10^5 CFU/mL, 37 °C, 24 h, mode of four independent experiments
[12] = Vibrio anguillarum ATCC 43305, tryptic soy broth with 2% NaCl, about 5 × 10^5 CFU/mL, 37 °C, 24 h, mode of four independent experiments
[13] = Acinetobacter baumannii ATCC 19606, Müller-Hinton broth, about 5 × 10^5 CFU/mL, 37 °C, 24 h, mode of four independent experiments

| Substance | Minimal inhibitory concentration (MIC) ([1]; ATCC 6051, 24 h) [µM] | Minimal inhibitory concentration (MIC) ([2]; ATCC 25923, 24 h) [µM] | Minimal inhibitory concentration (MIC) ([3]; ATCC 27853, 24 h) [µM] | Minimal inhibitory concentration (MIC) ([4]; ATCC 25922, 24 h) [µM] | Minimal inhibitory concentration (MIC) ([5]; ATCC 43305, 24 h) [µM] | Minimal inhibitory concentration (MIC) ([6]; ATCC 19606, 24 h) [µM] | antimicrobial activity / spectrum in words [7] | MIC toward all the tested bacterial strains ([7]; 24 h) [µM] | Minimal inhibitory concentration (MIC) [1, 8] [µM] | Minimal inhibitory concentration (MIC) [2, 9] [µM] | Minimal inhibitory concentration (MIC) [3, 10] [µM] | Minimal inhibitory concentration (MIC) [4, 11] [µM] | Minimal inhibitory concentration (MIC) [5, 12] [µM] | Minimal inhibitory concentration (MIC) [6, 13] [µM] |
| --- | --- | --- | --- | --- | --- | --- | --- | --- | --- | --- | --- | --- | --- | --- |
| LRWTPTPSYPRYPTRSRGSRWSR-NH2 [Myticalin B1] | 32 | >32 | >32 | 8 to 16 | >32 | 8 | moderate antimicrobial activity |  |  |  |  |  |  |  |
| RRRRRFRRVIRRIRLPKYLTINTE [Myticalin C6] | 32 | 8 | 32 | 4 | >32 | 2 | moderate antimicrobial activity |  |  |  |  |  |  |  |
| RRRRRYRYWRRGLTIQGRPKSLPLNTGD [Myticalin C9] | 4 | 2 | 8 | 4 | >32 | 2 | broad spectrum of activity |  |  |  |  |  |  |  |
| WGRRWRIRIPRLPRPWPPRPKWPRSATINTDQ [Myticalin D2] | 2 | 16 to 32 | 4 | 4 | >32 | 2 | broad spectrum of activity |  |  |  |  |  |  |  |
| WPRFPKPRKPTYPGPTYPGPTWPRPTWRRSATIDTEH [Myticalin D5] | >32 | >32 | >32 | >32 | >32 | >32 |  | > 32 |  |  |  |  |  |  |
| YSWPRMPRIPRLPRYPRYPRYPRWPRHPTIYA-NH2 [Myticalin A8] |  |  |  |  |  |  | broad spectrum of activity |  | 4 | 16 | 8 | 1 | >32 | 1 |
| YSWPRMPRIPRLPRYPRYPRYPRWPRWPRQPTIYA-NH2 [Myticalin A5] |  |  |  |  |  |  |  |  | 4 | 8 to 16 | 4 to 8 | 2 | >32 | 4 |
